Reference: ChEMBL document CHEMBL1133492, “Design, synthesis, and biological evaluation of fluoronitrophenyl substituted folate analogues as potential inhibitors of GAR transformylase and AICAR transformylase” (Bioorg Med Chem Lett, 2000)

Target: Phosphoribosylglycinamide formyltransferase (Escherichia coli) (UniProt P08179)
Experiment: In vitro inhibitory activity against Glycinamide ribonucleotide transformylase (GAR Tfase) following 30 min pre-incubation at 250 uM concentration

Phosphoribosylglycinamide formyltransferase (Escherichia coli), sequence (P08179 whole entry, looked up): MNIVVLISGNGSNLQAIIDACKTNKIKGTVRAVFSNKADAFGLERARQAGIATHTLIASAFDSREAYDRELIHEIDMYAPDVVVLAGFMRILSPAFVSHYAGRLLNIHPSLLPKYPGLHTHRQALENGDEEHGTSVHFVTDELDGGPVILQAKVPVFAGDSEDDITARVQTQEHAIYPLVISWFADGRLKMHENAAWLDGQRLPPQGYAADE

Row | Compound | inhibition [%]
1 | Nc1nc(N)c(CCCNc2cc(F)ccc2[N+](=O)[O-])c(O)n1 | 69
2 | COC(=O)c1ccc(CN(CCCc2c(N)nc(N)nc2O)c2cc(F)c([N+](=O)[O-])cc2[N+](=O)[O-])cc1 | 9
3 | COC(=O)c1ccc(CN(CCc2c(N)nc(N)nc2O)c2cc(F)ccc2[N+](=O)[O-])cc1 | 43
4 | Nc1nc(N)c(CCCNc2cc(F)c(F)cc2[N+](=O)[O-])c(O)n1 | 82
5 | Nc1nc(N)c(CCCNc2cc(F)cc(F)c2[N+](=O)[O-])c(O)n1 | 70
6 | COC(=O)c1ccc(CN(CCCc2c(N)nc(N)nc2O)c2cc(F)cc(F)c2[N+](=O)[O-])cc1 | 5
7 | COC(=O)c1ccc(CN(CCCc2c(N)nc(N)nc2O)c2cc(F)c(F)cc2[N+](=O)[O-])cc1 | 33
8 | COC(=O)c1ccc(CN(CCc2c(N)nc(N)nc2O)c2cc(F)c([N+](=O)[O-])cc2[N+](=O)[O-])cc1 | 24
9 | Nc1nc(N)c(CCCNc2cc(F)c([N+](=O)[O-])cc2[N+](=O)[O-])c(O)n1 | 73
10 | COC(=O)c1ccc(CN(CCCc2c(N)nc(N)nc2O)c2cc(F)ccc2[N+](=O)[O-])cc1 | 41
11 | COC(=O)c1ccc(CN(CCc2c(N)nc(N)nc2O)c2cc(F)c(F)cc2[N+](=O)[O-])cc1 | 3
12 | COC(=O)c1ccc(CN(CCCc2c(N)nc(N)nc2O)c2ccc([N+](=O)[O-])c(F)c2F)cc1 | 57
13 | COC(=O)c1ccc(CN(CCc2c(N)nc(N)nc2O)c2cc(F)cc(F)c2[N+](=O)[O-])cc1 | 9
14 | COC(=O)c1ccc(CN(CCc2c(N)nc(N)nc2O)c2ccc([N+](=O)[O-])c(F)c2F)cc1 | 60
